Data set [1] has as its system U937 cells. In kind it is cell-based, human.
Data set [2] relates to U937 cells. The data set is described as follows: LDH assay (percent cytotoxicity). Particulars: for cytotoxicity decrease: 10 μM, cytotoxicity induced by SPK; for effect on SPK-induced cytotoxicity at higher concentration: as concentrations increased (100 μM); for effect on cytotoxic effect of SPK (LDH): combined with SPK. In kind it is cell-based, human. The method, then:
(§1) The cells used in this example originated from the cell line U937 cells and were purchased from ATCC.
10 μls of chemicals provided by ATCC were added into a 96-well plate with the treatment plan of control, control, control, SPK 10 μM, A1 10 μM, A1 100 μM, A2 10 μM, A2 100 μM, SPK+A1 10 μM, SPK+A1 100 μM, SPK+A2 10 μM, and SPK+A2 100 μM. After incubation for 48 hours, 30 μls of media from each well were removed and added into another 96 well plate labeled as released LDH. 30 microliters of LDH substrate mix were added to the released LDH plate to measure the released LDH by the cells from the treatments. This plate was left at room temperature and away from direct light for 30 minutes. After 30 minutes, 30 μls of LDH stop solution was added to each well to terminate the assay and prevent further color changes. The plate was placed in a microplate reader and optical density (OD) was determined for each sample at 490 nm. Another reading at 655 nm was performed to determine if there was any background interference with the reading. Then, 10 μls of LDH lysis buffer were added to the original plate containing the cells to lyse all the cells and to measure a total or maximum LDH for each sample. Another empty 96 well plate was then labeled total LDH. 30 μls of the cell lysate and media were transferred from the original plate containing the lysed cells into the empty 96 well plate labeled as total LDH. 30 μls of LDH substrate mix were added to each sample to measure the total LDH. The plate was left at room temperature for 30 minutes away from direct light. After the 30 minutes, 30 μls of LDH stop solution were added to each well to terminate the experiment. The OD of the total LDH plate was measured following the same measurement steps for the released LDH. The data collected from the 490 nm wavelength was subtracted by the data collected from the 655 nm wavelength to find the corrected OD for each sample's released and total LDH. The percent cytotoxicity was later calculated by the equation: (Sample OD released LDH−control OD released LDH)/(Sample OD total LDH−control OD released LDH)*100 and T-tests were applied to each group to measure significance for percent cytotoxicity.

Data set [3] concerns U937 cells. The data set is described as follows: caspase 9 assay. In kind it is cell-based, human. The settings on record: with SPK. The method, then:
as §1
The cells were treated in a 6-well plate with the treatment plan of control, A1 10 μM, A2 10 μM, SPK10 μM, A1+SPK10 μM, and A2+SPK10 μM for 24 hours and collected in a 1.5 ml tube. Then, Colo cells were lysed by freezing and thawing 4 times. Then, 50 μl of caspase assay buffer will be added to every well of an empty 96-well plate. Also, 50 μl of lysis buffer will be added to the blank wells and 45 μl added to the treatment and control wells. 5 μl of lysed cells will be added to each treatment well with 5 μl of pNA Substrate Solution indeed to every well. The plate will then be taken for a reading at zero time point using a microplate reader at 405 nm. Afterwards, the plate will be covered and incubated at 37 degrees Celsius. […] The data from the Caspase Assay will be analyzed by calculating the change in optical density per minute (ΔOD). The ΔOD is obtained through subtracting the sample's start OD from the sample's final OD to determine the overall change in absorbance. The ΔOD/minutes is calculated by taking the ΔOD and dividing by the overall time in minutes. The ΔOD per minute of each sample is compared to the control by a percent change to determine the activity of caspase and apoptosis. The OD of the blank samples are subtracted from the OD of the treated sample to normalize the data and ensure minimal interference.

Data set [4] concerns colo 320 cells. In kind it is cell-based, human.
For data set [5], the system named is colo 320 cells.
A further data set relates to monocyte. The settings on record: literature; cited from earlier work.

`C[C@@H]1CC[C@H]2[C@@H](C)C(=O)O[C@@H]3O[C@@]4(C)CC[C@@H]1[C@]32OO4` [A1, Artemisinin]: in the data set on U937 cells [1], the “decrease in adhesion molecule expression” value is given as “around 70%”; the “decrease of cell adhesion” value is recorded as “about 73%”; the “effect on adhesion molecule expression, in words” value is reported as “significantly decreased the adhesion molecule expression”. In the data set with U937 cells [2], the cytotoxicity decrease entry was “around 2.4%”, the “effect on SPK-induced cytotoxicity at higher concentration” value is on record as “the effectiveness decreased” and the “effect on cytotoxic effect of SPK (LDH)” value is on record as “reversed the cytotoxic effect of SPK from a positive value to a negative value”. Further, in the data set with U937 cells [3], the “decrease of caspase activity that was increased by SPK” value is “around 68%” and the “effect on SPK caused apoptosis (caspase)” value is “decrease SPK caused apoptosis significantly”. Moreover, the “mitigation of SPK induced caspase apoptosis” value with colo 320 cells [4] is given as “remediate the increase in caspase apoptosis to a negative level”. Also, the “mitigation of SPK induced cytotoxicity” value in the data set with colo 320 cells [5] is “changed the cytotoxicity to a negative value”. Besides, the monocyte cell adhesion result with monocyte was “inhibit monocyte cell adhesion”.
As for `C[C@H]1[C@H](OC(=O)CCC(=O)O)O[C@@H]2O[C@@]3(C)CC[C@H]4[C@H](C)CC[C@@H]1[C@@]24OO3` [A2, Artesunate], in the data set with U937 cells [1], the “decrease in adhesion molecule expression” value is “around 68%”; the “decrease of cell adhesion” value is on record as “around 70%”; the “effect on adhesion molecule expression, in words” value is on record as “significantly decreased the adhesion molecule expression”. In the data set with U937 cells [2], the cytotoxicity decrease entry was “around 0.8%”, the “effect on SPK-induced cytotoxicity at higher concentration” value is reported as “the effectiveness decreased” and the “effect on cytotoxic effect of SPK (LDH)” value is listed as “reversed the cytotoxic effect of SPK from a positive value to a negative value”. For the same molecule, in the data set on U937 cells [3], the “decrease of caspase activity that was increased by SPK” value is recorded as around 70% and the “effect on SPK caused apoptosis (caspase)” value is “decrease SPK caused apoptosis significantly”. The “mitigation of SPK induced caspase apoptosis” value with colo 320 cells [4] is on record as “remediate the increase in caspase apoptosis to a negative level”. Besides, the “mitigation of SPK induced cytotoxicity” value in the data set with colo 320 cells [5] was “changed the cytotoxicity to a negative value”. Also, in the data set with monocyte, the monocyte cell adhesion result was “inhibit monocyte cell adhesion”.
